The test relates to miR-129-2 expression. The test is described as follows: miR-129-2 expression by qRT-PCR after 5-aza-cytidine treatment of HCC cells. The format is cell-based, human. The note with it: 5 μM 5-azaC for 3 days.

One compound from patent US8846316B2, “Biomarker for human liver cancer” (Industrial Technology Research Institute, priority 2012, dated 2014) can be followed below.

Procedure: Hepatoma cell lines, HepG2, HuH7, J7, Hep3B, Mahlavu and SK-Hep-1 were maintained in Dulbecco's modified Eagle's medium at 37° C. in a humidified, 5% CO2 incubator. Twenty-four hours prior to treatment, HuH7 cells (1×10^5 cells/well) and other hepatoma cells (3×10^5 cells/well) were seeded into 6-well plates. Cells were treated with 5 μM 5-azaC (Sigma) for 3 days. Culture medium was replaced every 24 hours with fresh media containing 5-azaC.
Total RNA of hepatoma cells and HCC clinical samples was extracted using TRIzol reagent (Invitrogen). cDNA synthesis was performed with Superscript III reverse transcriptase according to the manufacturer's instructions (Invitrogen). Real-time quantitative polymerase chain reaction was performed on the ABI Prism 7000 sequence detection System using the SYBR Green PCR master mix (Applied Biosystems). For analysis of mature miRNA expression, TaqMan miRNA assay system (Applied Biosystems) was used as the manufacturer's manual. The relative expression level was analyzed by the ΔΔCt method, and U6 and RNU44 were used as an internal control.
In order to evaluate whether miR-129-2 expression was regulated by DNA methylation, the expression level of miR-129-2 between normal liver cells and HCC cells was examined by quantitative reverse transcription PCR.

In the case of `Nc1ncn([C@@H]2O[C@H](CO)[C@@H](O)[C@H]2O)c(=O)n1` [5-aza-cytidine], the “miR-129-2 expression level elevated compared with untreated cell” value by setting is: (HuH7 cell) 2.5 fold; (J7 cell) 16 fold.
